In patent US20260078120A1, “SUBSTITUTED PYRIDOPYRIMIDINONES” (MIRATI THERAPEUTICS, INC., priority 2022, published 2026):

Legend:
[1] = system: T47D (PI3Kα H1047R mutant) cells; assay: CellTiter-Glo 2.0 luminescent cell viability assay, 72 hours, T47D cells; format: cell-based; conditions: Homo sapiens, T47D, 72 h, T47D (PI3Kα H1047R mutant) cells, CellTiter-Glo, approximately 72 hours; read-out: T47D (H1047R mutant) Viability IC50
Protocol: This Example illustrates that exemplary compounds of the present invention decrease the viability of cells.
(§1) The ability of a compound of Formula (I) to decrease the viability of cells was measured using CellTiter-Glo 2.0 (CTG) Luminescent Cell Viability Assay (#G9241) obtained from Promega (Madison, WI).
To prepare assay plates for viability assays, cells were trypsinized, resuspended in fresh media, and viable cells were counted utilizing trypan blue exclusion. T47D, SKBR3, or MKN1 cells were seeded at 1000 cells in 30 μl per well in a solid white flat bottom 384 cell culture plate (Perkin Elmer #6007680) and incubated at 37° C. overnight.
(§2) Assay day 1, cells were dosed using an Echo Liquid Handler (Beckman Coulter) with compounds at a 10 um starting concentration and serially diluted (1:4) for a total of 10 concentrations. Cells were incubated for approximately 72 hours with the compounds (solubilized in DMSO) at 37° C. After 72 hours of treatment, cell plates were equilibrated to room temperature before adding 15 μl of CTG to each well, plates were then covered in aluminum foil to protect from light, incubated at room temperature for 30 minutes on a microtiter plate shaker, and luminescence readings were collected using a CLARIOstar microplate reader (BMG Labtech, Germany). Percent of vehicle control values were plotted as log (inhibitor) vs. response-Variable slope (four parameters) for curve fitting and IC50 values were determined using XLfit.

[2] = system: SKBR3 (PI3Kα wild type) cells; assay: CellTiter-Glo 2.0 luminescent cell viability assay, 72 hours, SKBR3 cells; format: cell-based; conditions: Homo sapiens, SK-BR-3, 72 h, SKBR3 (PI3Kα wild type) cells, CellTiter-Glo, approximately 72 hours; read-out: SKBR3 (WT) Viability IC50
Protocol: as §1
To prepare assay plates for viability assays, cells were trypsinized, resuspended in fresh media, and viable cells were counted utilizing trypan blue exclusion.
as §2

SMILES	IC50 [1] [µM]	IC50 [2] [µM]
Cc1cc([C@@H](C)Nc2ccccc2C(=O)O)c2nc(N3CCN(c4ccccc4)CC3)c(C)c(=O)n2c1 [Example 11-273, (R)-2-((1-(3,7-dimethyl-4-oxo-2-(4-phenylpiperazin-1-yl)-4H-pyrido[1,2-a]pyrimidin-9-yl)ethyl)amino)benzoic acid]	3.1	7.39
Cc1cc(C(C)Nc2ccccc2C(=O)O)c2nc(-c3cccc(C#N)c3)cc(=O)n2c1 (stereo not shown) [Example 11-398, 2-((1-(2-(3-cyanophenyl)-7-methyl-4-oxo-4H-pyrido[1,2-a]pyrimidin-9-yl)ethyl)amino)benzoic acid]	> 10	> 10
Cc1cc([C@@H](C)Nc2ccnnc2C(=O)O)c2nc(N3CCC(F)(F)CC3)c(C#N)c(=O)n2c1 [Example 11-146, (R)-4-((1-(3-cyano-2-(4,4-difluoropiperidin-1-yl)-7-methyl-4-oxo-4H-pyrido[1,2-a]pyrimidin-9-yl)ethyl)amino)pyridazine-3-carboxylic acid]	> 10	> 10
Cc1cc([C@@H](C)Nc2ccccc2C(=O)O)c2nc(N3CCC4(CCOC4)C3)c(C)c(=O)n2c1 (stereo partly drawn) [Example 10-138, 2-(((1R)-1-(3,7-dimethyl-4-oxo-2-(2-oxa-7-azaspiro[4.4]nonan-7-yl)-4H-pyrido[1,2-a]pyrimidin-9-yl)ethyl)amino)benzoic acid]	0.0716	> 10
Cc1cc([C@@H](C)Nc2ccncc2C(=O)O)c2nc(N3Cc4ccccc4C3)c(C)c(=O)n2c1 [Example 11-275, (R)-4-((1-(2-(isoindolin-2-yl)-3,7-dimethyl-4-oxo-4H-pyrido[1,2-a]pyrimidin-9-yl)ethyl)amino)nicotinic acid]	> 10	> 10
Cc1cc([C@@H](C)Nc2ccccc2C(=O)O)c2nc(N3Cc4ccccc4C3CO)c(C#N)c(=O)n2c1 (stereo partly drawn) [Example 11-288, 2-(((1R)-1-(3-cyano-2-(1-(hydroxymethyl)isoindolin-2-yl)-7-methyl-4-oxo-4H-pyrido[1,2-a]pyrimidin-9-yl)ethyl)amino)benzoic acid]	0.721	> 10
Cc1cc(C(C)Nc2ccccc2C(=O)O)c2nc(N3CCN(C)C(=O)C3)cc(=O)n2c1 (stereo not shown) [Example 11-384, 2-((1-(7-methyl-2-(4-methyl-3-oxopiperazin-1-yl)-4-oxo-4H-pyrido[1,2-a]pyrimidin-9-yl)ethyl)amino)benzoic acid]	> 10	
Cc1cc(C(C)Nc2cccc(F)c2C(=O)O)c2nc(N3Cc4ccccc4C3)c(C)c(=O)n2c1 (stereo not shown) [Example 11-368, 2-fluoro-6-((1-(2-(isoindolin-2-yl)-3,7-dimethyl-4-oxo-4H-pyrido[1,2-a]pyrimidin-9-yl)ethyl)amino)benzoic acid]	0.856	

Now from value to compound:

IC50 [1] [µM]	IC50 [2] [µM]	SMILES
0.137	> 10	Cc1cc([C@@H](C)Nc2ccccc2C(=O)O)c2nc(N3CC(C(F)(F)F)C3)c(C)c(=O)n2c1 [Example 11-107, (R)-2-((1-(3,7-dimethyl-4-oxo-2-(3-(trifluoromethyl)azetidin-1-yl)-4H-pyrido[1,2-a]pyrimidin-9-yl)ethyl)amino)benzoic acid]
0.389	> 10	Cc1cc([C@@H](C)Nc2ccccc2C(=O)O)c2nc(N3CC(c4ccccn4)C3)c(C)c(=O)n2c1 [Example 11-16, (R)-2-((1-(3,7-dimethyl-4-oxo-2-(3-(pyridin-2-yl)azetidin-1-yl)-4H-pyrido[1,2-a]pyrimidin-9-yl)ethyl)amino)benzoic acid]
0.651	> 10	Cc1cc([C@@H](C)Nc2ccccc2C(=O)O)c2nc(NC3CCC3)c(C)c(=O)n2c1 [Example 11-99, (R)-2-((1-(2-(cyclobutylamino)-3,7-dimethyl-4-oxo-4H-pyrido[1,2-a]pyrimidin-9-yl)ethyl)amino)benzoic acid]
0.228	> 10	Cc1cc([C@@H](C)Nc2ccccc2C(=O)O)c2nc(N[C@@H](C)C3CC3)c(C#N)c(=O)n2c1 [Example 11-164, 2-(((R)-1-(3-cyano-2-(((S)-1-cyclopropylethyl)amino)-7-methyl-4-oxo-4H-pyrido[1,2-a]pyrimidin-9-yl)ethyl)amino)benzoic acid]
